Experimental data as given in US7033604B2, “Composition for topical administration” (Sucampo AG, priority 2001, dated 2006).
Marks after values point to notes of the source that are not given here.

Key:
[1] = system: Pseudomonas aeruginosa IID-1210; assay: Anti-microbial test: viable bacterial counts in wounded rabbit cornea inoculated with Pseudomonas aeruginosa; format: in vivo; details: for Colony forming units per gram of cornea Mean ± SE: cornea excised 4 hours after administration, Japanese white rabbits, 6 eyes
Procedure: Single colony isolate of Pseudomonas aeruginosa IID-1210 (provided by Department of Ophthalmology, Yokohama City University School of Medicine, Japan) on NAC agar plate was inoculated in 2 mL of heart infusion broth, and kept for overnight at 37° C. One hundred microliters of the overnight culture was inoculated in 10 mL of heart infusion broth, and then grown for about 12 hours at 37° C. with shaking. Twelve Japanese white rabbits (13 weeks old, Std: JW/CSK, Japan SLC, Inc.) were anesthetized by intravenous injection of pentobarbital sodium (25 mg/kg), and then topical anesthesia was made by instillation of 0.4% oxybuprocaine hydrochloride to both eyes. The corneal wound was produced bilaterally using a 6-mm trephine and 27-gauge needle according to the method described by Hatano H et al. (Japanese Review of Clinical Ophthalmology 79: 1153, 1985). Forty microliters of the bacterial suspension prepared above was instilled onto the wounded cornea twice (Day 1, 21:00). After bacterial inoculation, the rabbits were divided into 4 groups (three rabbits-six eyes/group). Fifty microliters of each test substance or vehicle was topically applied to both eyes of each animal once 12 hours after bacterial inoculation (Day 2, 9:00). […] Four hours after administration of test substances, the animals were sacrificed with an intravenous overdose of pentobarbital sodium, eyes were enucleated, and then corneas were excised using a 6-mm trephine. After weighing, each cornea was homogenized in 1 mL of sterile physiological saline. Aliquot (0.1 mL) of each homogenate was plated on NAC agar, and incubated for 24 hours at 37° C. The colonies were then counted. All quantitative cultures were run in triplicate, and the arithmetic mean of three measurements was determined for each cornea. Results were expressed as the number of organisms (determined by measures of colony forming units [CFU]) per gram of corneal weight.

[2] = system: Experimental Pseudomonas keratitis; assay: Anti-inflammatory test: slit lamp scoring of conjunctival and corneal inflammation in experimental Pseudomonas keratitis; format: in vivo, Japanese white rabbits; details: for Score (conjunctiva) Mean ± SE: conjunctival inflammation at 48 hours after bacterial inoculation, sum of scores; for Score (conjunctiva) Mean ± SE / Score (cornea) Mean ± SE: 6 eyes; for Score (cornea) Mean ± SE: corneal inflammation at 60 hours after bacterial inoculation, sum of corneal opacity (0–8) and corneal ulcer (0–3)
Procedure: Experimental Pseudomonas keratitis was induced for 12 Japanese white rabbits (13 weeks old, Std: JW/CSK) as described in Test Experiment 1. After bacterial inoculation, the rabbits were divided into 4 groups (three rabbits-six eyes/group). Fifty microliters of each test substance or vehicle was topically applied to both eyes of each animal 4 times a day at intervals of 4 hours beginning 12 hours after the bacterial inoculation. The test substance and vehicle were the same as those used in Test Example 1. Rabbit eyes were examined with a slit lamp biomicroscope, and severity of conjunctival inflammation at 48 hours after bacterial inoculation and corneal inflammation at 60 hours after bacterial inoculation were evaluated by assigning a numerical value to the following signs based on the method described by Kuriyama H et al. Corneal inflammation was evaluated by sums of the scores of corneal opacity (score 0–8) and corneal ulcer (score 0–3). Conjunctival inflammation was evaluated by sums of the scores of redness of palpebral conjunctival inflammation (score 0–4), edema of palpebral conjunctiva (score 0–4), nictitating membrane status (score 0–3) and discharge (score 0–3).

[3] = 0.06% FK-506, 50 microliters topically 4 times a day from 12 hours after inoculation
[4] = 0.3% ofloxacin, 50 microliters topically 4 times a day from 12 hours after inoculation

Row | SMILES | Colony forming units per gram of cornea Mean ± SE ([1]; 0.06% FK-506, 50 microliters topically to both eyes once 12 hours after bacterial inoculation) | Effect on viable Pseudomonas counts (in words) ([1]; 0.06% FK-506, single topical application, compared with vehicle treatment) | Effect on conjunctival inflammation (in words) ([2]; 0.06% FK-506, 4 times a day, 48 hours after inoculation) | Effect on corneal inflammation (in words) ([2]; 0.06% FK-506, 4 times a day, 60 hours after inoculation) | Score (conjunctiva) Mean ± SE [2, 3] | Score (cornea) Mean ± SE [2, 3] | Colony forming units per gram of cornea Mean ± SE ([1]; 0.3% ofloxacin, 50 microliters topically to both eyes once 12 hours after bacterial inoculation) | Score (conjunctiva) Mean ± SE [2, 4] | Score (cornea) Mean ± SE [2, 4]
1 | C=CCC1/C=C(\C)CC(C)CC(OC)C2OC(O)(C(=O)C(=O)N3CCCCC3C(=O)OC(/C(C)=C/C3CCC(O)C(OC)C3)C(C)C(O)CC1=O)C(C)CC2OC (stereo not drawn) [FK-506, 17-allyl-1,14-dihydroxy-12-[2-(4-hydroxy-3-methoxycyclohexyl)-1-methylvinyl]-23,25-dimethoxy-13,19,21,27-tetramethyl-11,28-dioxa-4-azatricyclo [22.3.1.0^4,9]octacos-18-ene-2,3,10,16-tetraone] | 31225 ± 7204 Colony forming units per gram of cornea | decreased the viable Pseudomonas counts as compared with vehicle treatment, but not significantly | tended to decrease the conjunctival inflammation | tended to decrease the corneal inflammation | 6.7 ± 0.4 | 6.0 ± 0.0 |  |  | 
2 | CC1COc2c(N3CCN(C)CC3)c(F)cc3c(=O)c(C(=O)O)cn1c23 (stereo not drawn) [ofloxacin] |  |  |  |  |  |  | 0^a),b) Colony forming units per gram of cornea | 6.0 ± 0.5 | 2.1 ± 0.4^a)
